Tests used:
Stellaria media = experiment: Effectivity testing against weed plants ex. 5.1, Abbott %; assay type: in vivo
Text: (§1) Each plot was divided by different pre-treatments 1 week before application of the trial treatments: • A) Pre-treatment with glyphosate-isopropylammonium allowing to evaluate in this section the pre-emergence effect against weeds. • B) No pre-treatment, present winter annual weeds are received a post-emergence application.
(§2) 2005, applied on dormant turf in winter
(§3) Effectivity was rated in percent (%) herbicidal effect compared with untreated control according to the method of Abbott according to the formula [(X−Y)/X]100 where X is the absolute level/scoring of the control plants, Y is the level/scoring of the treated plants. 100% efficacy means full control; 0% efficacy means no control of the weed; all ratings above 80% are usually acceptable.

Aphanes arvensis = experiment: as above; assay type: in vivo; details: 151 DAT
Text: as §1, §2, §3

Veronica arvensis = experiment: as above; assay type: in vivo
Text: as §1, §2, §3

Dagitaria sanguinales = experiment: as above; assay type: in vivo, Digitaria sanguinales
Text: as §1, §2, §3

Digitaria sanguinalis = experiment: Effectivity testing against weed plants ex. 5.3, in bermuda grass turf, Abbott %; assay type: in vivo; details: 12.5 g a.i./ha
Text: A co-formulation containing a mixture compounds no. […] Granules were applied with a shaker can.
Location: Sports turf, North Carolina, USA
Plot size: 1.4 m^2 and 3 replicates per treatment
Application timing: 27 Mar. 2007, spring application, early post for the weed
Effectivity was rated in percent (%) herbicidal effect compared with untreated control according to the method of Abbott mentioned above (see 5.1). 100% efficacy means full control; 0% efficacy means no control of the weed; all ratings above 80% are usually acceptable.
The application and evaluation were performed as described in example 5.2 with the following difference:
Turf grass species: Cynodon dactylon, variety (bermuda grass)
Weed species: Digitaria sanguinalis, Poa annua

Cc1ccc2c(c1)[C@H](Nc1nc(N)nc([C@@H](C)F)n1)[C@@H](C)C2 (stereo in doubt) [(A21)/(A22), indaziflam]
Herbicidal effect (%) on Stellaria media, Post-emergence application without pre-treatment (Stellaria media; 25 g a.i./ha, 124 DAT): 100%
Herbicidal effect (%) on Stellaria media, Pre-emergence application after pre-treatment (Stellaria media; 25 g a.i./ha, 124 DAT): 75%
Herbicidal effect (%) on Stellaria media, Post-emergence application without pre-treatment (Stellaria media; 25 g a.i./ha, 151 DAT): 100%
Herbicidal effect (%) on Stellaria media, Pre-emergence application after pre-treatment (Stellaria media; 25 g a.i./ha, 151 DAT): 71%
Herbicidal effect (%) on Stellaria media, Post-emergence application without pre-treatment (Stellaria media; 50 g a.i./ha, 124 DAT): 100%
Herbicidal effect (%) on Stellaria media, Pre-emergence application after pre-treatment (Stellaria media; 50 g a.i./ha, 124 DAT): 100%
Herbicidal effect (%) on Stellaria media, Post-emergence application without pre-treatment (Stellaria media; 50 g a.i./ha, 151 DAT): 100%
Herbicidal effect (%) on Stellaria media, Pre-emergence application after pre-treatment (Stellaria media; 50 g a.i./ha, 151 DAT): 100%
Herbicidal effect (%) on Stellaria media, Post-emergence application without pre-treatment (Stellaria media; 75 g a.i./ha, 124 DAT): 100%
Herbicidal effect (%) on Stellaria media, Pre-emergence application after pre-treatment (Stellaria media; 75 g a.i./ha, 124 DAT): 100%
Herbicidal effect (%) on Stellaria media, Post-emergence application without pre-treatment (Stellaria media; 75 g a.i./ha, 151 DAT): 100%
Herbicidal effect (%) on Stellaria media, Pre-emergence application after pre-treatment (Stellaria media; 75 g a.i./ha, 151 DAT): 100%
Herbicidal effect (%) on Aphanes arvensis, Post-emergence application without pre-treatment (Aphanes arvensis; 25 g a.i./ha): 100%
Herbicidal effect (%) on Aphanes arvensis, Pre-emergence application after pre-treatment (Aphanes arvensis; 25 g a.i./ha): 50%
Herbicidal effect (%) on Aphanes arvensis, Post-emergence application without pre-treatment (Aphanes arvensis; 50 g a.i./ha): 33%
Herbicidal effect (%) on Aphanes arvensis, Pre-emergence application after pre-treatment (Aphanes arvensis; 50 g a.i./ha): 100%
Herbicidal effect (%) on Aphanes arvensis, Post-emergence application without pre-treatment (Aphanes arvensis; 75 g a.i./ha): 100%
Herbicidal effect (%) on Aphanes arvensis, Pre-emergence application after pre-treatment (Aphanes arvensis; 75 g a.i./ha): 100%
Herbicidal effect (%) on Veronica arvensis, Post-emergence application without pre-treatment (Veronica arvensis; 25 g a.i./ha, 123 DAT): 100%
Herbicidal effect (%) on Veronica arvensis, Pre-emergence application after pre-treatment (Veronica arvensis; 25 g a.i./ha, 123 DAT): 81%
Herbicidal effect (%) on Veronica arvensis, Post-emergence application without pre-treatment (Veronica arvensis; 25 g a.i./ha, 157 DAT): 94%
Herbicidal effect (%) on Veronica arvensis, Pre-emergence application after pre-treatment (Veronica arvensis; 25 g a.i./ha, 157 DAT): 100%
Herbicidal effect (%) on Veronica arvensis, Post-emergence application without pre-treatment (Veronica arvensis; 50 g a.i./ha, 123 DAT): 75%
Herbicidal effect (%) on Veronica arvensis, Pre-emergence application after pre-treatment (Veronica arvensis; 50 g a.i./ha, 123 DAT): 100%
Herbicidal effect (%) on Veronica arvensis, Post-emergence application without pre-treatment (Veronica arvensis; 50 g a.i./ha, 157 DAT): 100%
Herbicidal effect (%) on Veronica arvensis, Pre-emergence application after pre-treatment (Veronica arvensis; 50 g a.i./ha, 157 DAT): 100%
Herbicidal effect (%) on Veronica arvensis, Post-emergence application without pre-treatment (Veronica arvensis; 75 g a.i./ha, 123 DAT): 100%
Herbicidal effect (%) on Veronica arvensis, Pre-emergence application after pre-treatment (Veronica arvensis; 75 g a.i./ha, 123 DAT): 100%
Herbicidal effect (%) on Veronica arvensis, Post-emergence application without pre-treatment (Veronica arvensis; 75 g a.i./ha, 157 DAT): 100%
Herbicidal effect (%) on Veronica arvensis, Pre-emergence application after pre-treatment (Veronica arvensis; 75 g a.i./ha, 157 DAT): 100%
Herbicidal effect (%) on Dagitaria sanguinales, Pre-emergence application after pre-treatment (Dagitaria sanguinales; 25 g a.i./ha, 187 DAT): 100%
Herbicidal effect (%) on Dagitaria sanguinales, Pre-emergence application after pre-treatment (Dagitaria sanguinales; 25 g a.i./ha, 207 DAT): 100%
Herbicidal effect (%) on Dagitaria sanguinales, Pre-emergence application after pre-treatment (Dagitaria sanguinales; 25 g a.i./ha, 234 DAT): 97%
Herbicidal effect (%) on Dagitaria sanguinales, Pre-emergence application after pre-treatment (Dagitaria sanguinales; 25 g a.i./ha, 259 DAT): 99%
Herbicidal effect (%) on Dagitaria sanguinales, Pre-emergence application after pre-treatment (Dagitaria sanguinales; 50 g a.i./ha, 187 DAT): 100%
Herbicidal effect (%) on Dagitaria sanguinales, Pre-emergence application after pre-treatment (Dagitaria sanguinales; 50 g a.i./ha, 207 DAT): 100%
Herbicidal effect (%) on Dagitaria sanguinales, Pre-emergence application after pre-treatment (Dagitaria sanguinales; 50 g a.i./ha, 234 DAT): 100%
Herbicidal effect (%) on Dagitaria sanguinales, Pre-emergence application after pre-treatment (Dagitaria sanguinales; 50 g a.i./ha, 259 DAT): 100%
Herbicidal effect (%) on Dagitaria sanguinales, Pre-emergence application after pre-treatment (Dagitaria sanguinales; 75 g a.i./ha, 187 DAT): 100%
Herbicidal effect (%) on Dagitaria sanguinales, Pre-emergence application after pre-treatment (Dagitaria sanguinales; 75 g a.i./ha, 207 DAT): 100%
Herbicidal effect (%) on Dagitaria sanguinales, Pre-emergence application after pre-treatment (Dagitaria sanguinales; 75 g a.i./ha, 234 DAT): 100%
Herbicidal effect (%) on Dagitaria sanguinales, Pre-emergence application after pre-treatment (Dagitaria sanguinales; 75 g a.i./ha, 259 DAT): 100%
Herbicidal effect (%) on Digitaria sanguinalis (Digitaria sanguinalis; 35 DAT): 87%
Herbicidal effect (%) on Digitaria sanguinalis (Digitaria sanguinalis; 56 DAT): 63%
Herbicidal effect (%) on Digitaria sanguinalis (Digitaria sanguinalis; 68 DAT): 73%
Herbicidal effect (%) on Digitaria sanguinalis (Digitaria sanguinalis; 107 DAT): 70%

Reference: patent US8426342B2, “Method for weed control in lawn” (priority 2008, dated 2013)
